Data on 1 compound can be found in patent US20110112014A1 (priority 2008, published 2011).

“Also recorded” adds a separate entry of the source.

Data set [1] is described as follows: Hydration effect of glycerol solutions by concentration. It is filed as in vivo, human. The following applies: also printed as 18 g/l.
A short description of data set [2]: Blood glucose concentration after 2 l of beverage in overnight-fasted male subjects. It is filed as in vivo, human. The following applies: 8 fasting male subjects; 2 l consumed between -120 and -40 min; FIG. 2. Here is the method: 2 l of each beverage were consumed between −120 and −40 min.
After an overnight fast, each subject consumed 2 l of one solution (between −120 min and −40 min in FIG. 1). All subjects had to ingest all types of solution, however in random order. Simultaneously, blood samples were taken and analyzed for plasma glucose and haemoglobin concentration as well as haematocrit. RER measurements confirmed that all subjects were in a fasting state.

For data set [3] the following is noted: cited from earlier work.
The conditions of data set [4]: large doses; cited from earlier work.

As for `OCC(O)CO` [glycerol, propane-1,2,3-triol], the “Concentration at which appreciable hydration effects are seen” value in data set [1] is recorded as “above 0.2 mol/l”. Also, the Blood glucose concentration entry in data set [2] is recorded as “does not increase blood glucose levels; also recorded: remained unaffected”. The Hepatic glucose production entry in data set [3] (compared with fasting control conditions without exogenous glycerol load) was “does not increase hepatic glucose production”. For the same compound, the Plasma glucose concentrations entry in data set [3] (healthy fasting subjects, glycerol supplementation) was “does not increase plasma glucose concentrations”. Further, in data set [4], the Toxicity entry is “non-toxic”.
